Measured values taken from ChEMBL document CHEMBL1799910, “Optimization of 1,2,3,4-tetrahydroacridin-9(10H)-ones as antimalarials utilizing structure-activity and structure-property relationships” (J Med Chem, 2011).
In brackets after ≈: the same amount, converted by molar mass.

Columns and labels:
[1] = Aqueous solubility of compound at pH 7.4 by HPLC analysis; details: buffer
[2] = Partition coefficient, log D of the compound at pH 7.4 by HPLC analysis; details: octanol/water
Plasmodium falciparum [3] = experiment: Antimalarial activity against chloroquine and pyrimethamine-resistant Plasmodium falciparum W2 infected in human A positive erythrocytes after 72 hrs by SYBR Green I assay; format: functional, organism-based; details: W2, 72 h
Plasmodium falciparum [4] = experiment: Resistance index, ratio of EC50 for chloroquine, mefloquine, pyrimethamine and atovaquone-resistant Plasmodium falciparum TM90-C2B to EC50 for chloroquine and pyrimethamine-resistant Plasmodium falciparum W2; format: functional
Plasmodium falciparum [5] = experiment: Antimalarial activity against chloroquine, mefloquine, pyrimethamine and atovaquone-resistant Plasmodium falciparum TM90-C2B infected in human A positive erythrocytes after 72 hrs by SYBR Green I assay; format: functional, organism-based
[6] = Permeability of the compound by PAMPA method at pH 7.4; format: ADME; details: read-out: permeability
[7] = Cytotoxicity index, ratio of EC50 for mouse J774 cells to EC50 for chloroquine, mefloquine, pyrimethamine and atovaquone-resistant Plasmodium falciparum TM90-C2B; format: cell-based; details: read-out: Ratio EC50
J774 = experiment: Cytotoxicity against mouse J774 cells after 72 hrs by Cell titer 96 aqueous one solution cell proliferation assay; format: cell-based; details: J774, 72 h

Row | SMILES | solubility [1] [µM] | logD [2] | EC50 (Plasmodium falciparum [3]) [µM] | Ratio EC50 (Plasmodium falciparum [4]) | EC50 (Plasmodium falciparum [5]) [µM] | Papp [6] [×10⁻⁶ cm/s] | selectivity ratio [7] | EC50 (J774) [µM]
1 | O=c1c2c([nH]c3ccc([N+](=O)[O-])cc13)CCCC2 | 8 (≈ 1.95 µg/mL) | 1.5 | 3.16 | 0.12 | 0.379 | 6.9 | ≥ 100 | > 5
2 | O=c1c2c([nH]c3c(F)cccc13)CCCC2 | 109 (≈ 23.7 µg/mL) | 1.5 | 0.536 | 5.43 | 2.91 | 17 | ≥ 100 | > 40
3 | O=c1c2c([nH]c3cc(F)ccc13)CCCC2 | 46 (≈ 9.99 µg/mL) | 1.7 | 0.0677 | 1.76 | 0.119 | 21 | ≥ 100 | > 20
4 | O=c1c2c([nH]c3ccc(I)cc13)CCCC2 | 4 (≈ 1.3 µg/mL) | 2.3 | 0.378 | 0.44 | 0.167 | 96 | ≥ 100 | > 20
5 | O=c1c2c([nH]c3cc(Br)ccc13)CCCC2 | 14 (≈ 3.89 µg/mL) | 2.8 | 0.0777 | 1.48 | 0.115 | 70 | ≥ 100 | > 10
6 | CC(C)(C)c1ccc2[nH]c3c(c(=O)c2c1)CCCC3 | 5 (≈ 1.28 µg/mL) | 2.8 | 0.0787 | 4.13 | 0.325 | 165 | ≥ 100 | > 5
7 | CC(C)c1ccc2[nH]c3c(c(=O)c2c1)CCCC3 | 30 (≈ 7.24 µg/mL) | 2.2 | 0.879 | 0.83 | 0.732 | 100 | ≥ 100 | > 40
8 | CCOc1ccc2[nH]c3c(c(=O)c2c1)CCCC3 | 5 (≈ 1.22 µg/mL) | 1.9 | 0.265 | 0.85 | 0.226 | 52 | ≥ 100 | > 5
9 | CCOC(=O)c1ccc2[nH]c3c(c(=O)c2c1)CCCC3 | 8 (≈ 2.17 µg/mL) | 2.1 | 0.153 | 0.38 | 0.0583 | 63 | ≥ 100 | > 5
10 | Cc1ccc(C)c2c(=O)c3c([nH]c12)CCCC3 | 122 (≈ 27.7 µg/mL) | 2.6 | 3.07 | 0.78 | 2.39 | 263 | ≥ 100 | > 20
11 | Cc1cc(C)c2[nH]c3c(c(=O)c2c1)CCCC3 | 108 (≈ 24.5 µg/mL) | 2.2 | 1.07 | 0.72 | 0.768 | 58 | ≥ 100 | > 40
12 | Cc1ccc2c(=O)c3c([nH]c2c1C)CCCC3 | 8 (≈ 1.82 µg/mL) | 2.2 | 3.92 | 0.58 | 2.28 | 42 | ≥ 100 | > 5
13 | COc1cc(OC)c2[nH]c3c(c(=O)c2c1)CCCC3 | 152 (≈ 39.4 µg/mL) | 1.9 | > 9.64 | <0.83 | 7.98 | 51 | ≥ 100 | > 20
14 | COc1cc(OC)c2c(=O)c3c([nH]c2c1)CCCC3 | 188 (≈ 48.7 µg/mL) | 1.4 | > 7.29 | <0.36 | 2.59 | 13 | ≥ 100 | > 40
15 | COc1ccc2c(=O)c3c([nH]c2c1OC)CCCC3 | 175 (≈ 45.4 µg/mL) | 1.8 | 6.34 | 0.55 | 3.46 | 19 | ≥ 100 | > 20
16 | COc1cc2[nH]c3c(c(=O)c2cc1OC)CCCC3 | 88 (≈ 22.8 µg/mL) | 1.3 | 8.97 | 0.38 | 3.39 | 1 | ≥ 100 | > 20
17 | O=c1c2c([nH]c3cc(Cl)cc(Cl)c13)CCCC2 | 8 (≈ 2.15 µg/mL) | 2.5 | 0.0878 | 1.1 | 0.0962 | 134 | ≥ 100 | > 5
18 | O=c1c2c([nH]c3c(Cl)c(Cl)ccc13)CCCC2 | 41 (≈ 11 µg/mL) | 2.9 | 6.33 | >1.47 | > 9.33 | 348 | ≥ 100 | > 20
